Biological target: T1, CFTR (Homo sapiens, UniProt P13569)
T1 construct: expressed in transfected cells; host or cells: COS7 cells infected with the recombinant Sendai virus SeV/CFTR (CFTR cDNA in the NotI site of pSeV18+b(+))
Test: Whole-cell patch clamp of COS7 cells infected with CFTR-expressing Sendai virus
Assay type: cell-based
Conditions: COS7 cells expressing sample-1 SeV/CFTR
Description: COS7 cells were infected with the prepared CFTR-expressing Sendai virus (sample-1 SeV/CFTR), and the obtained infected cells were analyzed by the whole-cell patch clamp technique. […] A glass pipette containing a pipette solution was contacted with a cell within a bath solution, and negative pressure was applied to remove the cell membranes. In this occasion, the pipette solution contains 145 mM NMDG^+, 148.4 mM Cl^−, […], 5 mM ATP, 10 mM glucose, 0.1 mM EGTA, and 10 mM HEPES (titrated by Tris, pH 7.4), and the bath solution contains 141 mM Na^+, 152.4 mM Cl^−, […], 5 mM K^+, 1.7 mM Mg^2+, 2 mM Ca^2+, 10 mM glucose, 0.1 mM EGTA, and 10 mM HEPES (titrated by Tris, pH 7.4). The effects of forskolin on the membrane current in COS7 cells expressing sample-1 SeV/CFTR were examined by whole-cell recording (FIG. 14). […] The influx current was reproduced by adding forskolin again after a single wash, and was again suppressed by glibenclamide, which confirmed that the observed change in current was a specific drug-induced response.

T1 sequence (P13569 whole entry): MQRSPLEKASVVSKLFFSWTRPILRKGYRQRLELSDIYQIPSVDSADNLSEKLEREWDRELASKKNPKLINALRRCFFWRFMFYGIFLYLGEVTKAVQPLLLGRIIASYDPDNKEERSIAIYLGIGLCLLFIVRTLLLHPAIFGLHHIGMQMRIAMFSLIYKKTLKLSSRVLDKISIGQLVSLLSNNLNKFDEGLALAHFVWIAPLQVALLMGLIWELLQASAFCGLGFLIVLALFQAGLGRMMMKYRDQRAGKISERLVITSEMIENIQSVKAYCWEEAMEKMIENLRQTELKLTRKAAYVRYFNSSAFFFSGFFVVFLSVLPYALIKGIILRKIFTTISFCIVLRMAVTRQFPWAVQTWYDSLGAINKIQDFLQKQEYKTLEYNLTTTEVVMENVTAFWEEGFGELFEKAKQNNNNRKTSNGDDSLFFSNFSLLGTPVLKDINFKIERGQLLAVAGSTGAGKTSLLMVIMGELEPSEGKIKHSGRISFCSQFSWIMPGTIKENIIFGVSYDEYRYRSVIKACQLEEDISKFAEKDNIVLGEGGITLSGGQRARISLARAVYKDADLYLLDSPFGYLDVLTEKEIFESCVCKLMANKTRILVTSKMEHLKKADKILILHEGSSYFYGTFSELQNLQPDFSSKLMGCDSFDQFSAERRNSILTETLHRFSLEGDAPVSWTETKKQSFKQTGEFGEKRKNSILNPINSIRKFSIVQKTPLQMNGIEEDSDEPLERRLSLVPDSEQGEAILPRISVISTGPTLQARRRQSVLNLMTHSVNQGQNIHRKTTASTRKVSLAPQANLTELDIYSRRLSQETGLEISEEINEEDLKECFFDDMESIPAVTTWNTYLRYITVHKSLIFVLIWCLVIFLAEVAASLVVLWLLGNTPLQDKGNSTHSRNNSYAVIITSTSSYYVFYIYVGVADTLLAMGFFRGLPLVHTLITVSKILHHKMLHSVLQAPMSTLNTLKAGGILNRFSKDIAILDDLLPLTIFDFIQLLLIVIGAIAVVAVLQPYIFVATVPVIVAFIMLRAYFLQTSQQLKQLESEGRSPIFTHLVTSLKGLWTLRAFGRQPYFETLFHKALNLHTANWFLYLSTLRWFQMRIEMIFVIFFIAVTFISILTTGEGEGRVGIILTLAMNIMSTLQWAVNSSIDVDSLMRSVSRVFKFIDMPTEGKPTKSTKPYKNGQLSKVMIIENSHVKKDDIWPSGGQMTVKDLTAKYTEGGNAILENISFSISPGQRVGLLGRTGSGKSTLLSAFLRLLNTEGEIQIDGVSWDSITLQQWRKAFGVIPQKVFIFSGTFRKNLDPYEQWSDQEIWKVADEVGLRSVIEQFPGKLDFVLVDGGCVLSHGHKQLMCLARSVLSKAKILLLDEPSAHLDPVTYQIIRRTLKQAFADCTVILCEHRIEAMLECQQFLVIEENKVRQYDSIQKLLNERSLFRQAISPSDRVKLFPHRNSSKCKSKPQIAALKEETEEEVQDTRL

COc1ccc(Cl)cc1C(=O)NCCc1ccc(S(=O)(=O)NC(=O)NC2CCCCC2)cc1 [Glibenclamide]
effect on forskolin-induced Cl− currents (300 μM): inhibited | effect on forskolin-induced influx current (whole-cell recording, reproduced after wash (FIG. 14)): suppressed

— patent US7314614B1, “Recombinant sendai virus vector for introducing exogenous genes to airway epithelia” (priority 1999, dated 2008)
